Data on one molecule can be found in patent publication US20250339091A1, “HONEY BEE-DERIVED BIOACTIVE WOUND DRESSING WITH SUSTAINED ANTIMICROBIAL RELEASE” (priority 2025, published 2025).

This data set in a line: fluorescent dye diffusion assays in simulated wound fluid. It counts as physicochemical. On the procedure:
For example, in experiments using rhodamine B as a tracer molecule, diffusion coefficients within the patterned hydrogel matrix increased from 1.4×10^−7 cm^2/s at 35° C. to 3.6×10^−7 cm^2/s at 37.5° C., confirming the gating effect of the thermoresponsive architecture. The permeability enhancement facilitates more rapid passive diffusion of bioactive agents—such as hydrogen peroxide from raw honey or flavonoids from propolis extract—from the surrounding microcapsules into the wound site, even before active actuator-based release is triggered. This early-stage, temperature-coupled passive transport acts as a preemptive therapeutic buffer, delivering antimicrobials during acute inflammatory flares while reducing latency between pathogenic escalation and drug availability.

Structures are written as SMILES.

Regarding `CCN(CC)c1ccc2c(-c3ccccc3C(=O)O)c3ccc(=[N+](CC)CC)cc-3oc2c1.[Cl-]` [rhodamine B], the “diffusion coefficient within the patterned hydrogel matrix” value runs as follows: (at 35° C.) 1.4×10^−7 cm^2/s; (at 37.5° C.) 3.6×10^−7 cm^2/s.
